# Experimental data: publication PMC6148296 (Scientific Reports, 2018)
# “And” between values parts separate entries of the source, which are not always exact repeats. Identical values can stand only once. “Also recorded” adds a separate entry of the source. Like-named read-outs stand apart in the source and are kept apart here. Marks after values point to notes of the source that are not given here.
# Columns and labels:
# rat μ-opioid receptor [1] = target: T1, rat μ-opioid receptor (Rattus norvegicus, UniProt P33535); test: [35S]GTPγS binding assay, MOR; assay type: biochemical; details: for functional profile at μ opioid receptor: G protein activation; for Kb: read-out: Antagonist activity MOR Ke
# T1 construct: expressed in transfected cells; membranes prepared
# mice [2] = test: Abdominal constriction test; assay type: in vivo; details: for effect of Dezocine on morphine-induced antinociception: 0.05 mg/kg Dezocine; for ED50: Mus musculus; for effect of antagonist pretreatment on Dezocine-produced antinociception: antagonist 20 mg/kg i.p., 24 h before 0.25 mg/kg Dezocine
# rat δ-opioid receptor [3] = target: T2, rat δ-opioid receptor (Rattus norvegicus, UniProt P33533); test: Receptor binding assay, [3H]DPDPE competition; details: read-out: δ binding affinity Ki
# T2 construct: expressed in transfected cells; membranes prepared
# mice [4] = test: Rotorod test (sedation); assay type: in vivo; details: for sedative effect, rotarod test: 15 min after injection
# human κ-opioid receptor [5] = target: T3, human κ-opioid receptor (Homo sapiens, UniProt P41145); test: Receptor binding assay, [3H]U69593 competition; details: CHO cell membranes, 1.5 nM [3H]U69593; read-out: κ binding affinity Ki
# T3 construct: expressed in transfected cells; membranes prepared
# human κ-opioid receptor [6] = target: T3, human κ-opioid receptor; test: [35S]GTPγS binding assay, KOR; assay type: biochemical
# mice [7] = test: Hot plate test; assay type: in vivo
# Description: (§1) Kunming strain male and female mice weighing 20 to 24 g were obtained from the Laboratory Animal Center, Chinese Academy of Sciences (Shanghai, China). Mice were housed in groups in a room maintained in a 12/12 h light/dark cycle in a temperature controlled environment with free access to food and water. All research protocols were approved by the Animal Care and Use Committee of Shanghai Institute of Materia Medica, Chinese Academy of Sciences. All experimental procedures were in strict accordance with the National Institutes of Health Guide for the Care and Use of Laboratory Animals.
# Hot plate test was performed according to the method described previously[31],[34],[35]. Briefly, mice were placed on a 55 °C heated surface, the latency to licking or jumping was recorded. The cut-off time of 60 s was used to minimize tissue damage. Before formal study, the nociceptive response of each mouse was measured three times, and the mean of the 2nd and 3rd responses was used as pre-drug latency. The mouse not responding within 20 s was excluded. The percentage antinociception was calculated as 100× [(test latency-predrug latency)/(cut-off time -predrug latency)].
# mice [8] = test: Formalin test; assay type: in vivo; details: for ED50: Mus musculus, 0.25 h
# Description: as §1
# The formalin test was performed according to our previous work[35]. In brief, the amount of time that mice spent licking or flinching the injected hind paw was recorded after injected with 20 μl 1.0% formalin at the plantar surface of the right hind paw. The mice were observed fro 60 min. The first 10 min was recorded as the phase I, and the rest of time was recorded as phase II. Percentage of analgesia was calculated as 100× (time of control – time of drug)/time of control.
# rat μ-opioid receptor [9] = target: T1, rat μ-opioid receptor; test: Receptor binding assay, [3H]DAMGO competition
# rat δ-opioid receptor [10] = target: T2, rat δ-opioid receptor; test: [35S]GTPγS binding assay, DOR; assay type: biochemical; details: read-out: Agonist activity DOR Emax (agonist efficacy at 10 μM)
# mice [11] = system: mice; design: method as in PMID 18353307, PMID 25816912; details: 95% confidence limits in parentheses; cited from earlier work
# mice [12] = system: mice; design: method as in PMID 18353307, PMID 25816912; details: 95% confidence limits in parentheses; cited from earlier work; remark: listed apart in the source
# mice [13] = system: mice; design: method as in PMID 18353307, PMID 25816912; details: 95% confidence limits in parentheses; cited from earlier work; remark: listed apart in the source
# [14] = mice, 15 min after drug administration, 95% confidence limits in parentheses
smiles,measurement,setting,value
"C[C@@H](NC(=O)[C@@H](N)Cc1ccc(O)cc1)C(=O)NCC(=O)N(C)[C@@H](Cc1ccccc1)C(=O)NCCO [DAMGO, [D-Ala2,N-Me-Phe4,Gly5-ol]-enkephalin]",Emax,"rat μ-opioid receptor [1]; 0.1 nM [35S]GTPγS, percentage of stimulated binding over basal, read-out: Agonist activity MOR Emax",241 ± 33.8%
same,functional profile at μ opioid receptor,rat μ-opioid receptor [1],full agonist efficacy
C[C@@]12CCCCC[C@@H](Cc3ccc(O)cc31)[C@@H]2N [Dezocine],effect of Dezocine on morphine-induced antinociception,mice [2]; 0.3 mg/kg morphine,did not affect
same,effect of Dezocine on morphine-induced antinociception,"mice [2]; 0.4 mg/kg morphine, p < 0.05",significantly decreased; also recorded: significantly inhibited
same,effect of Dezocine co-administration on morphine antinociception,mice [2]; 0.125 mg/kg Dezocine and 0.3 mg/kg morphine,produced higher antinociception than morphine used alone
same,"effect of Dezocine on U50,488H-induced antinociception","mice [2]; Dezocine pretreatment, U50,488 H 1.2 mg/kg i.p., without β-FNA",did not inhibit; also recorded: did not affect
same,ED50,"mice [2]; 0.25 h, mice, 15 min after drug administration, 95% confidence limits in parentheses, read-out: Antinociception ED50 Abdominal constriction test",0.2 mg/kg
same,ED50,"mice [2]; summary over abdominal constriction and formalin tests, read-out: ED50 values of Dezocine-induced antinociception",0.2 to 0.4 mg/kg
same,"potency relative to morphine, abdominal constriction test",mice [2]; ratio of ED50 values,4 fold
same,"effect of Dezocine on U50,488H-induced antinociception in the presence of β-FNA","mice [2]; β-FNA pretreatment, U50,488 H 1.2 mg/kg i.p., p < 0.05",significantly decreased
same,functional profile at μ opioid receptor,rat μ-opioid receptor [1],μ partial agonist
same,Emax at 10 µM,rat μ-opioid receptor [1]; read-out: Agonist activity MOR Emax (agonist efficacy at 10 μM),45.8 ± 1.1%
same,Kb,rat μ-opioid receptor [1],10.4 ± 4.9 nM
same,Kb,"rat μ-opioid receptor [1]; rightward shift of DAMGO concentration-response curve, single dose method",10.4 nM
same,Ki,rat δ-opioid receptor [3],399 ± 43.3 nM
same,"sedative effect, rotarod test","mice [4]; 2.5 mg/kg, trend, p = 0.0881",did not reach significant difference
same,"sedative effect, rotarod test","mice [4]; 5 mg/kg, p < 0.05 vs saline",produced significant sedation
same,"sedative effect, rotarod test",mice [4]; 7.5 and 25 mg/kg,the sedative effect diminished
same,dose that produced sedative side effects (ceiling effect),mice [4]; rotarod test,5 mg/kg
same,Ki,human κ-opioid receptor [5],22 ± 1.52 nM
same,functional profile at κ opioid receptor,human κ-opioid receptor [6]; G protein activation,κ partial agonist
same,Agonist activity KOR Emax (agonist efficacy at 10 μM),"human κ-opioid receptor [6]; at 10 μM, % of the maximal stimulation obtained with U50,488 H",33.6 ± 2.4^d %
same,Emax at 10 µM,"human κ-opioid receptor [6]; read-out: Agonist activity KOR Emax (agonist efficacy at 10 μM), at 10 μM, % of the maximal stimulation obtained with U50,488 H",33 to 45%
same,Kb,"human κ-opioid receptor [6]; rightward shift of U50,488 H concentration-response curve, single dose method, read-out: Antagonist activity KOR Ke",324.1 nM and 324 nM
same,"maximal antinociceptive effect, hot-plate test","mice [7]; at 7.5 mg/kg, bell-shaped dose-response curve",around 60%
same,duration of consistent high (close to peak) antinociceptive response,"mice [7]; hot-plate test, time course",up to 1 h
same,onset of antinociceptive action,"mice [7]; hot-plate test, time course",5 min
same,"maximal antinociception, hot-plate test, whatever the route of administration","mice [7]; i.v., s.c., or p.o.",around 55%
same,ED50,"mice [8]; mice, 15 min after drug administration, 95% confidence limits in parentheses, read-out: Antinociception ED50 Formalin test Phase I",0.4 mg/kg
same,ED50,"mice [8]; mice, 15 min after drug administration, 95% confidence limits in parentheses, read-out: Antinociception ED50 Formalin test Phase II",0.4 mg/kg
same,Antinociception ED50 Formalin test Phase I,mice [8]; [14],0.4 (0.2–1.0) mg/kg
same,Antinociception ED50 Formalin test Phase II,mice [8]; [14],0.4 (0.2–0.9) mg/kg
same,"potency relative to morphine, formalin test phase I",mice [8]; ratio of ED50 values,approximately 13 fold
same,"potency relative to morphine, formalin test phase II",mice [8]; ratio of ED50 values,9 fold
same,selectivity for μ over δ opioid receptors,rat μ-opioid receptor [9]; from Ki values,273 fold
same,selectivity for μ over κ opioid receptors,rat μ-opioid receptor [9]; from Ki values,15 fold
same,Ki,rat μ-opioid receptor [9]; read-out: µ binding affinity Ki,1.46 ± 0.1 nM
same,Emax at 10 µM,rat δ-opioid receptor [10],26.1 ± 1%
CN1CC[C@]23c4c5ccc(O)c4O[C@H]2[C@@H](O)C=C[C@H]3[C@H]1C5 [Morphine],Antinociception ED50 Formalin test Phase I,mice [11],5.1 (4.3–5.9)^b mg/kg
same,Antinociception ED50 Formalin test Phase II,mice [11],3.1 (2.8–3.3)^b mg/kg
same,Antinociception ED50 Hot plate test,mice [12],6.9 (5.6–8.5)^a mg/kg
same,Antinociception ED50 Abdominal constriction test,mice [13],0.8 (0.5–1.2)^a mg/kg
"Oc1ccc2c3c1O[C@H]1c4[nH]c5c(c4C[C@@]4(O)[C@@H](C2)N(CC2CC2)CC[C@]314)C[C@@]1(O)[C@H]2Cc3ccc(O)c4c3[C@@]1(CCN2CC1CC1)[C@H]5O4 [nor-BNI, nor-binaltorphimine]",effect of antagonist pretreatment on Dezocine-produced antinociception,mice [2]; p < 0.05,significantly decreased
"COC(=O)/C=C/C(=O)N[C@@H]1CC[C@@]2(O)[C@H]3Cc4ccc(O)c5c4[C@@]2(CCN3CC2CC2)[C@H]1O5 [β-FNA, β-funaltrexamine]",effect of antagonist pretreatment on Dezocine-produced antinociception,mice [2]; p < 0.05,significantly decreased
